The conditions of data set [1]: cited from earlier work.
Data set [2] relates to patients with treatment-resistant depression. Particulars: cited from earlier work.
For data set [3] the following is noted: cited from earlier work. This is another data set of the same source.
The conditions of data set [4]: nebulized esketamine hydrochloride saline solution; cited from earlier work.
A short description of data set [5]: Pharmacokinetics of inhaled esketamine dry powder in healthy volunteers, clinical study. It is filed as in vivo, human. Particulars: pulmonary administration, overall conclusion. As for the experimental part:
Esketamine hydrochloride dry powder formulation of Example 2 was administered to healthy volunteers pulmonary, i.e. directly to the lungs using dry powder inhaler (DPI) (by self-administration), under supervision of medical personnel.
One puff of dry powder formulation contained 4.6 mg of esketamine hydrochloride, corresponding to 4 mg of esketamine free base and excipients 18.22 mg of lactose monohydrate and 0.18 mg of magnesium stearate.
A single dose was an inhalation events consisting of 1 to 6 puffs, i.e. 4 to 24 mg of esketamine free base nominal dose.
In part A of the study, designed as a one-centre single ascending dose, the medicine was delivered in a single dose once in one day (up to 6 consecutive puffs) to 18 healthy volunteer subjects. Subjects were divided into 6 cohorts, cohorts receiving 1, 2, 3, 4, 5 or 6 puffs in a single dose (inhalation event), respectively. Collection of blood samples for determination of esketamine and esnorketamine metabolite concentration and calculation of pharmacokinetic parameters was performed for 24 hours following the start of the test in the administration day. The aim of the study was to determine the amount of puffs in an inhalation event needed to obtain plasma concentration similar to that sufficient to achieve antidepressant effect as for 0.20 mg/kg 40 minutes intravenous infusion. […]

In data set [6] the test system is healthy volunteers. Nature of the data set: Adverse effects monitoring in clinical study, assessed by a psychiatrist. Type of data set: in vivo, human. Particulars: pulmonary administration. As for the experimental part: Both in Part A and Part B of the study the adverse effects were monitored and assessed by a psychiatrist. The summary of the adverse effects is presented in FIG. 10 (Part A) and FIG. 11 (Part B). […] Psychomimetic effects were transient, lasting up to 30 minutes following administration. […] In Part C of the study adverse effects were monitored and assessed by a psychiatrist after each sequence of administration, i.e. on Day 1, Day 4, Day 8 and Day 11. The summary of adverse effects for Part C is presented on FIGS. 12A to 12D for Day 1, Day 4, Day 8 and Day 11, respectively. […] Psychomimetic effects were transient, lasting up to 30 minutes following administration.

For data set [7] the following is noted: 0.20 mg/kg 40 minutes intravenous infusion, predicted from literature data; cited from earlier work.
Data set [8] deals with NMDA receptor. Particulars: cited from earlier work.
[9] abbreviates: after oral administration of ketamine.
[10] abbreviates: after intravenous infusion of racemic ketamine.

For `CNC1(c2ccccc2Cl)CCCCC1=O` (racemic) [ketamine], the bioavailability in data set [1] (orally administered) is listed as 16-20%. The “fraction of patients with treatment-resistant depression responsive” value in data set [2] (human, in vivo) is “about ⅔”. Also, the “half-period of concentration fall” value in data set [3] (after intravenous infusion 0.5 mg/kg for 40 minutes) is recorded as “below 2 hours”. Further, in data set [3] (intravenous infusion 0.5 mg/kg for 40 minutes, maintained about 40 minutes), the “systemic concentration of parent drug” value is on record as “about 200 ng/ml”. Moreover, the inhaled bioavailability entry in data set [4] is recorded as “reduced”.
For the molecule `CN[C@]1(c2ccccc2Cl)CCCCC1=O` [esketamine], the Plasma concentration profile result in data set [5] is “quite smooth, consistent with a target profile”. For the same molecule, the antidepressant effect entry in data set [2] (TRD patients, 40-minute i.v. infusion of 0.20 mg/kg or 0.40 mg/kg (Singh et al.)) is recorded as “rapid onset of robust antidepressant effects”. In data set [6], the “safety of plasma concentration profile” value is “safe for chronic administration”. Moreover, the “concentration at 40 min of infusion” value in data set [7] was 60 to 100 ng/mL.
`NC1(c2ccccc2Cl)CCCCC1=O` (centres unmarked) [norketamine]: in data set [1] (setting [9]), the “AUC as % of ketamine” value is given as “exceeding 1000%” and the “level as % of ketamine level” value was 500-1000%. Also, the “activity on NMDA receptor relative to ketamine” value in data set [8] is “many times less active than ketamine”. Further, in data set [3] (setting [10]), the “maximum concentration as % of ketamine concentration” value is given as 10-20% and the “percentage of AUC norketamine to ketamine” value was 20-40%.

The values above are taken from US11925607B2, “Ketamine composition for use in a method of treatment of depression by pulmonary administration” (Celon Pharma S.A., priority 2018, dated 2024).
